From article PMC6731595, “The anti-parasitic agent suramin and several of its analogues are inhibitors of the DNA binding protein Mcm10” (Open Biology, 2019)
pKd: −log10 of the molar value. {FAM} = 6-carboxyfluorescein (6FAM) label

Tests used:
[1] = target: T1, human RPA70AB (Homo sapiens, UniProt P27694); assay: FP saturation binding of probe to RPA70AB; settings: probe 12.5 nM, mean ± SEM, n = 3, listed as 5′-6FAM DNA probe
T1 construct: recombinant human RPA70AB (181-422) in a pSV281 vector; 6xHis (TEV site) (N, cleaved yes); made in house; host or cells: Escherichia coli BL21(DE3)
T1 sequence (P27694 181-422): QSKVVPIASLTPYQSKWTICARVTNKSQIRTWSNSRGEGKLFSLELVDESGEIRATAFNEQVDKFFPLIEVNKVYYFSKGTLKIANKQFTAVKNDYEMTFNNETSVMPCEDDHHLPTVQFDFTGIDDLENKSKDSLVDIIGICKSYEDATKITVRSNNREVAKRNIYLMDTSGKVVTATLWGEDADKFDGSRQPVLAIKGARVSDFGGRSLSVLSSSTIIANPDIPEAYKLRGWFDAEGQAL
Description: (§1) The LOPAC pilot screen identified the sulfhydryl reagent 4-chloromercuribenzoic acid as an inhibitor in the fluorescence polarization (FP) assay. As there was no known Mcm10 inhibitor, 4-chloromercuribenzoic acid (30 μM) was used as a positive control on initial screening plates. Following the discovery of suramin as a Mcm10 inhibitor, suramin (7 μM) was used as a positive control on subsequent screening plates. To confirm activity, screening hits were tested in dose response experiments (8 concentrations in duplicate) using xMcm10-ID. Similar dose response experiments were conducted with suramin and its analogs to confirm activity for hMcm10-ID (1 μM) and xMcm10-FL (2 μM) and to determine selectivity relative to RPA70AB (0.4 μM). […] FP was measured in mP units, and ∆mP values for each well were calculated as the difference between the measured mP and the average of the “probe only” controls. […] The parallel and perpendicular mP values were also used to calculate total fluorescence intensity (TFI) determined by the sum of parallel mP + (2 x perpendicular mP). TFI was used to detect fluorescence interference by compounds [1]. […] IC50 values were calculated using the four parameter logistic equation in Prism 6.0 (GraphPad). […] KD values were calculated using the one site or two site binding equations in Prism 6.0 (GraphPad). […]

[2] = target: T2, hMcm10-ID (Homo sapiens, UniProt Q7L590); assay: FP saturation binding of probe to hMcm10-ID; settings: probe 12.5 nM, mean ± SEM, n = 3
T2 construct: hMcm10-ID (residues 237 to 436) were expressed in E. coli strain BL21(DE3); 6xHis (HRV 3C site) (N, cleaved yes); made in house; host or cells: E. coli BL21(DE3)
T2 sequence (Q7L590 237-436): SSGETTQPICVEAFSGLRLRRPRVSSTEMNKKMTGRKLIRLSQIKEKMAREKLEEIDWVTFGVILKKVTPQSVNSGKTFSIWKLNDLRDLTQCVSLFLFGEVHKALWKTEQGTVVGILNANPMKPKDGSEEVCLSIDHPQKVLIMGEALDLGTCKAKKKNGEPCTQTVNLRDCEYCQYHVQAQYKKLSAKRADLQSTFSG
Description: as §1

Substance: 5′-6-FAM-ATGGTAGGCA (DNA, 5' {FAM}, backbone and methylation of C not given here) [5’-6-FAM 10-mer ssDNA, 5′-6-carboxyfluorescein 10-mer DNA FP probe]
- pKd [1]: 6.40
- KD of FP probe for hMcm10-ID [2]: low micromolar affinity
